Where two headings read alike, the source gives them in different places.
Key:
HIV protease = HIV protease (Human immunodeficiency virus type 1 group M subtype B, UniProt P04585); experiment: In vitro inhibition of HIV protease (spectrophotometric assay of N-terminal proline from peptide substrate cleavage); assay type: biochemical; conditions: citrate buffer pH 5.5, 37° C.
Experimental: HIV protease was expressed in E. coli and partially purified from soluble extracts of the bacterium by ammonium sulphate fractionation (0-30%). […] Cleavage of the substrate was quantified by measuring the production of H-Pro-Ile isobutylamide by the spectrophotometric assay of N-terminal proline.
1.25 mM of substrate were dissolved in 125 mM of citrate buffer (pH 5.5) containing 0.125 mg/ml of Tween 20. […] The solution was heated in a water bath and then the pigmented residues were re-dissolved in 1 ml of 1% pyrogallol in 33% water in acetone (wt./vol./vol.). The optical density of the solution was measured spectrophotometrically at 599 nm.

[1] = system: HTLV-III (strain RF) grown in C8166 cells; experiment: Activity against HIV (p24 antigen capture assay in infected C8166 cells); assay type: cell-based; conditions: Human immunodeficiency virus 1, concentration that produces 50% protection, 72 hours, viral protein 24 antigen capture, read-out: I50 Activity against HIV
Experimental: This assay uses HTLV-III (strain RF) grown in C8166 cells (a human CD4^+ T lymphoblastoid line) using RPM1 1640 medium with bicarbonate buffer, antibiotics and 10% fetal bovine serum.
A suspension of cells is infected with ten times the TCD50 of virus and adsorption allowed to proceed for 90 minutes at 37° C. The cells are washed three times with medium. The test is carried out in 6 ml tissue culture tubes, each tube containing 2×10^5 infected cells in 1.5 ml of medium. Test compounds are dissolved in either aqueous medium or dimethyl sulphoxide, according to solubility, and a 15 μl solution of the substance added. The cultures are incubated at 37° C. for 72 hours in a humidified atmosphere containing 5% carbon dioxide in air. The cultures are then centrifuged and an aliquot of the supernatant solubilized with Nonidet P40 and subjected to an antigen capture assay which uses a primary antiserum with particular reactivity against the viral protein 24 and a horseradish peroxidase detection system. Color generation is measured spectrophotometrically and plotted against the concentration of test substance. The concentration that produces 50% protection is determined. (I50).

Compound | IC50 (HIV protease; substrate S^1: succinyl-Ser-Leu-Asn-Tyr-Pro-Ile isobutylamide, read-out: I50 Inhibition of HIV protease, S^1) | IC50 (HIV protease; substrate S^2: succinyl-Val-Ser-Gln-Asn-Phe-Pro-Ile isobutylamide, read-out: I50 Inhibition of HIV protease, S^2) | IC50 [1]
CC(C)(C)NC(=O)[C@@H]1C[C@@H]2CCCC[C@@H]2CN1C[C@@H](O)[C@H](Cc1ccccc1)NC(=O)[C@H](CC(N)=O)NC(=O)OCc1ccccc1 [Benzyloxycarbonyl, 2-[3(S)-[[N-(benzyloxycarbonyl)-L-asparaginyl]amino]-2(R)-hydroxy-4-phenylbutyl]-N-tert.butyl-decahydro-(4aS,8aS)-isoquinoline-3(S)-carboxamide] | < 24 nM | < 2.7 nM | 20 nM
CC(C)(C)NC(=O)[C@@H]1C[C@@H]2CCCC[C@@H]2CN1C[C@@H](O)[C@H](Cc1ccccc1)NC(=O)[C@H](CC(N)=O)NC(=O)c1ccc2ccccc2n1 [2-Quinolylcarbonyl, N-tert.butyl-decahydro-2-[2(R)-hydroxy-4-phenyl-3(S)-[[N-(2-quinolylcarbonyl)-L-asparaginyl]amino]butyl]-(4aS,8aS)-isoquinoline-3(S)-carboxamide] | – | – | 2 nM

From patent US5196438A, “Amino acid derivatives” (Hoffmann-La Roche Inc., priority 1989, dated 1993)
